Results reported in paper PMC11352859, “Functionalized Congeners of 2H-Chromene P2Y6 Receptor Antagonists” (Cells, 2024).

Legend:
α2A = biological target: T1, α2A (Homo sapiens, UniProt P08913); assay: PDSP binding assay, α2A; conditions: PDSP, mean, n = 2; read-out: Ki, α2A
T1 construct: NIMH Psychoactive Drug Screening Program (PDSP)
T1 sequence (P08913 1-465): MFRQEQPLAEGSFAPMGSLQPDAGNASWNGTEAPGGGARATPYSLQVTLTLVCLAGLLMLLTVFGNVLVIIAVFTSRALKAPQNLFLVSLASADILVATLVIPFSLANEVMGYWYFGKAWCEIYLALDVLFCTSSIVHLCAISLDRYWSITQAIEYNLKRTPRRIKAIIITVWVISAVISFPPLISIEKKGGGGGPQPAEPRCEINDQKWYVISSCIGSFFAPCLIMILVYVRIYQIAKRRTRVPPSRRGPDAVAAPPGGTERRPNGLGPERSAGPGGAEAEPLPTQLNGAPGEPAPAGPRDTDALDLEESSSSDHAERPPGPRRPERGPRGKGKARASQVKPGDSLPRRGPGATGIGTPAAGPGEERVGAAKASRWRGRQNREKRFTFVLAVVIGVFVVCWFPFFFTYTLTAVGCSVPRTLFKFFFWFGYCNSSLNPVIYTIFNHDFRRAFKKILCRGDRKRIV
Excerpt: (§1) Table S2. Off-target screening (to replace table later). We thank Dr. Bryan L. Roth (Univ. North Carolina at Chapel Hill) and National Institute of Mental Health's Psychoactive Drug Screening Program (Contract # HHSN-271-2008-00025-C) for screening data. Reference: Besnard et al.
(§2) Procedures: https://pdsp.unc.edu/pdspweb/content/UNC-CH%20Protocol%20Book.pdf […]
(§3) nucleosides were found at the following sites (human unless noted): 5HT1A, 5HT1B, 5HT1D, […]
(§4) β3, BZP rat brain site, D1, D2, D3, D4, D5, GABAA, H1, H2, H3, H4, M1, M2, M5, δ-opioid receptor (DOR), κ-opioid receptor (KOR), μ-opioid receptor (MOR), σ1, σ2, DAT, NET, SERT. Ki values […]
(§5) Compound # PDSP # Receptor LogKi Ki (nM)

hP2Y6R = biological target: T2, hP2Y6R (Homo sapiens, UniProt Q15077); assay: UDP (100 nM)-induced Ca2+ mobilization in hP2Y6R stably transfected 1321N1 astrocytoma cells; type: cell-based; conditions: UDP 100 nM; 3–4 independent triplicate determinations; read-out: IC50, hP2Y6R (Mean ± SEM)
T2 construct: expressed in transfected cells
T2 sequence (Q15077 whole entry): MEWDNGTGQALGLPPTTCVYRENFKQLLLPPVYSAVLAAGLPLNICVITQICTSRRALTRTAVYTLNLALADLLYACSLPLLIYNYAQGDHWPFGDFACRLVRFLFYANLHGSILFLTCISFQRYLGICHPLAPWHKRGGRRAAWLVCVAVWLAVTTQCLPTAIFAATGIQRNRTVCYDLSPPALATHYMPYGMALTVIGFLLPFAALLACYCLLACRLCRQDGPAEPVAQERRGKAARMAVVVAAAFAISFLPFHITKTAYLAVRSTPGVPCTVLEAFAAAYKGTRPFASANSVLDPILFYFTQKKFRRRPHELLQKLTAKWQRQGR
Experimental: To screen for P2Y6R antagonist activity, PLC-mediated calcium mobilization assays were carried out using the recombinant human P2Y6R stably expressed in 1321N1 astrocytoma cells (hP2Y6R-1321N1) according to the previously published method. Briefly, the hP2Y6R-1321N1 cells were seeded on 96-well black plates and incubated overnight. The antagonists were pretreated along with the FLIPR dye (Calcium 6 assay kit, Molecular Devices, San Jose, CA, USA) containing 5 mM probenecid for 45 min, prior to agonist addition followed by an immediate intracellular Ca^2+ measurement. […] Here, probenecid was used as an organic anion transporter inhibitor to prevent the efflux of the dye into the extracellular environment. During incubation, the membrane permeable dye enters the cytoplasm and cleaves the acetoxymethyl protection to enable Ca^2+ binding. When the P2Y6R was activated by UDP, the increased calcium concentration was directly measured by intracellular changes in the fluorescence intensity with a Fluorescent Imaging Plate Reader (FLIPR^TETRA, Molecular Devices, San Jose, CA, USA).

D5 = biological target: T3, D5 (Homo sapiens, UniProt P21918); assay: PDSP binding assay, D5; conditions: PDSP, mean, n = 2; read-out: Ki, D5
T3 construct: NIMH Psychoactive Drug Screening Program (PDSP)
T3 sequence (P21918 whole entry): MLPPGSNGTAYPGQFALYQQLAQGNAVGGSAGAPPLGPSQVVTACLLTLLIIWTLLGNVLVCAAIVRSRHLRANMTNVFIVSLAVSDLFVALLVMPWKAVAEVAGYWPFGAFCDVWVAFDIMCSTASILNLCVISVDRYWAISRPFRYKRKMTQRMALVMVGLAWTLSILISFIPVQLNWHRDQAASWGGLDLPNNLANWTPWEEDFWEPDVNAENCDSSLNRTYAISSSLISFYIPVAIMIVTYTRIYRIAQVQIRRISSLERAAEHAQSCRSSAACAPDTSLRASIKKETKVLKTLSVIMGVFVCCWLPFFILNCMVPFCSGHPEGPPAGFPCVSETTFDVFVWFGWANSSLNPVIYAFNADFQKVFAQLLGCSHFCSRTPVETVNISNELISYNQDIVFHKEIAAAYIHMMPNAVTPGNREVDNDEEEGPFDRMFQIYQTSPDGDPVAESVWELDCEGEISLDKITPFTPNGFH
Excerpt: as §1, §2, §3, §4, §5

[1] = test system: hP2Y6R-1321N1 human astrocytoma cells; assay: MTT cell viability assay, hP2Y6R-1321N1 astrocytoma cells; type: cell-based; conditions: P2Y6R-astrocytoma, 12 h, MTT
Experimental: (§6) The 1321N1 astrocytoma (hP2Y6R-overexpressing) and HeLa (non-transfected) cell lines were cultured in Dulbecco’s modified Eagle’s medium (DMEM, HyClone, Logan, UT, USA) supplemented with 5% heat-inactivated fetal bovine serum (FBS, HyClone, UT, USA), 100 U/mL penicillin, and 100 µg/mL streptomycin in 5% CO2 at 37 °C. The cell viability was determined using an MTT kit (Sigma, St. Louis, MO, USA) according to the manufacturer’s instructions. Briefly, 1 × 10^4 cells were seeded in triplicate in 96-well plates. The hP2Y6R-astrocytoma and HeLa cells were treated with a P2Y6R agonist and antagonists at a range of concentrations and incubated for 12 h. The cell viability was measured at 490 nm using a SpectraMax-M5 Spectrometer (Molecular Devices, San Jose, CA, USA).

HeLa cells = assay: MTT cell viability assay, HeLa cells; type: cell-based, human; conditions: 12 h, MTT
Experimental: as §6

hP2Y14R = biological target: T4, hP2Y14R (Homo sapiens, UniProt Q15391); parameters: method as in PMID 28527783, PMID 23235874; conditions: previous members of the series; ref [29],[43]; cited from earlier work
T4 construct: expressed in transfected cells
T4 sequence (Q15391 1-338): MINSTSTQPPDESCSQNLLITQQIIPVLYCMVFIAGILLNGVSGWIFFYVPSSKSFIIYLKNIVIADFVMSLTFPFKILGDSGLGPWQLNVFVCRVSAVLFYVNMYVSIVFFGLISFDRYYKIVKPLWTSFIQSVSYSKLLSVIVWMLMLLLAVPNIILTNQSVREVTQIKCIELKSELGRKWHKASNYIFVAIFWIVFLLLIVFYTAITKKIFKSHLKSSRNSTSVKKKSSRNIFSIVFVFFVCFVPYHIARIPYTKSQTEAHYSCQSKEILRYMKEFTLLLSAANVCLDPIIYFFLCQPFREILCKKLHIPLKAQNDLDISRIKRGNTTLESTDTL

other P2YRs = conditions: at high µM concentrations; ref [29],[43]; cited from earlier work
[2] = test system: 45 target sites (receptors, channels, and transporters); assay: PDSP off-target binding screen at 45 target sites; parameters: species or system human; conditions: PDSP binding assays
Excerpt: as §1, §2, §3, §4, §5

CC(C)(C)OC(=O)NCCC#Cc1ccc2c(c1)C=C([N+](=O)[O-])C(C(F)(F)F)O2 (centres unmarked) [Compound 20]
Ki (α2A): 1.6 µM | IC50 (hP2Y6R): 0.587 ± 0.087 µM | Ki (D5): 4.4 µM

O=[N+]([O-])C1=Cc2cc(F)ccc2OC1C(F)(F)F (centres unmarked) [MRS4830, 6-fluoro-3-nitro-2-(trifluoromethyl)-2H-chromene]
% survival ([1]; 0.1 µM): 100% | % survival ([1]; 0.5 µM): 102% | % survival ([1]; 1 µM): 101% | % survival ([1]; 5 µM): 96% | % survival ([1]; 10 µM): 89% | % survival (HeLa cells; 0.1 µM): 94% | % survival (HeLa cells; 0.5 µM): 91% | % survival (HeLa cells; 1 µM): 93% | % survival (HeLa cells; 5 µM): 87% | % survival (HeLa cells; 10 µM): 83%

NCCC#Cc1ccc2c(c1)C=C([N+](=O)[O-])C(C(F)(F)F)O2 (centres unmarked) [Compound 21]
IC50 (hP2Y6R): 22.6 ± 9.3 µM

CC(C)(C)OC(=O)NCCCCCCCCC#Cc1ccc2c(c1)C=C([N+](=O)[O-])C(C(F)(F)F)O2 (centres unmarked) [Compound 33]
IC50 (hP2Y6R): 45.4 ± 17.7 µM

O=[N+]([O-])C1=Cc2cc(C#Cc3ccc(CO)cc3)ccc2OC1C(F)(F)F (centres unmarked) [Compound 16]
hP2Y14R binding (hP2Y14R): inactive

NCCCCC#Cc1ccc2c(c1)C=C([N+](=O)[O-])C(C(F)(F)F)O2 (centres unmarked) [Compound 25]
IC50 (hP2Y6R): 5.39 ± 1.49 µM

NCCCCCCC#Cc1ccc2c(c1)C=C([N+](=O)[O-])C(C(F)(F)F)O2 (centres unmarked) [Compound 29]
IC50 (hP2Y6R): 20 ± 5.1 µM

CC(C)(C)OC(=O)NCCCCCCCCC#Cc1cccc2c1OC(C(F)(F)F)C([N+](=O)[O-])=C2 (centres unmarked) [Compound 39]
IC50 (hP2Y6R): 23.8 ± 6.8 µM

O=[N+]([O-])C1=Cc2cccc(C#CCCCCCCCCBr)c2OC1C(F)(F)F (centres unmarked) [Compound 36, 8-(10-Bromodec-1-yn-1-yl)-3-nitro-2-(trifluoromethyl)-2H-chromene]
IC50 (hP2Y6R): 4.79 ± 1.45 µM

O=C(O)CCOCCOCCOCCOCC#Cc1ccc2c(c1)C=C([N+](=O)[O-])C(C(F)(F)F)O2 (centres unmarked) [Compound 35]
IC50 (hP2Y6R): 63.3 ± 30 µM

O=[N+]([O-])C1=Cc2ccccc2OC1C(F)(F)F (centres unmarked) [Compound 2a, reference compound]
hP2Y14R binding (hP2Y14R): inactive | IC50 (hP2Y6R): 2.91 ± 1.21 µM | inhibition at most other P2YRs (other P2YRs): minor

O=C(O)CCOCCOCCOCCOCC#Cc1cccc2c1OC(C(F)(F)F)C([N+](=O)[O-])=C2 (centres unmarked) [Compound 41]
IC50 (hP2Y6R): > 50 µM

CC(C)(C)C(=O)NCCCCCCCC#Cc1ccc2c(c1)C=C([N+](=O)[O-])C(C(F)(F)F)O2 (centres unmarked) [Compound 31]
off-target interactions at 45 target sites [2]: only two weak interactions | Ki (α2A): 3.5 µM | IC50 (hP2Y6R): 17.3 ± 5.2 µM

O=[N+]([O-])C1=Cc2cccc(Cl)c2OC1C(F)(F)F (centres unmarked) [Compound 8]
hP2Y14R binding (hP2Y14R): inactive
